“And” between values parts separate entries of the source, which are not always exact repeats. Equal entries are not always repeated.
How the values were obtained:
Type in all cases: in vivo
[1] = system: sweet sensitive panelists; experiment: Ranking of 4% cellobiose against sucrose standards (1% and 1.5%) in water for overall sweetness intensity, r-index analysis
From the text: 20 sweet sensitive panelists ranked 4% cellobiose and sucrose standards (1% and 1.5%) for overall sweetness intensity over 2 replications for a total of 40 observations.

expert tasters [2] = experiment: Expert taster comparison, lemon lime beverage (water, sodium benzoate, 180 ppm Reb-A, citric acid) with 4% cellobiose vs base, panel of 7 (Example 11); conditions: 2000 ppm sodium benzoate, 500 ppm citric acid, 850 ppm lemon lime flavor
Procedure: (§1) Samples were evaluated by a panel of 7 expert tasters. Tasters were asked to compare the base (water, 2000 ppm sodium benzoate, 180 ppm Reb-A, 500 ppm citric acid, 850 ppm lemon lime flavor) with the model beverage (water, 2000 ppm sodium Benzoate, 180 ppm Reb-A, 500 ppm citric acid, 850 ppm lemon lime flavor, 4% cellobiose) focusing on the overall quality of sweetness, particularly on the enhancement of the upfront sweetness, overall sweetness intensity.

expert tasters [3] = experiment: Expert taster comparison, plain zero-fat yoghurt with 90 ppm sucralose and 4% cellobiose vs base; conditions: 90 ppm sucralose
Procedure: (§2) In a plain zero-fat yoghurt, sweetened with sucralose (90 ppm), cellobiose was tested at 4% for sweetness enhancement. Samples were evaluated by a panel of 6 expert tasters. Tasters were asked to compare the base (plain yoghurt+90 ppm sucralose) with the model yoghurt (plain yoghurt, 90 ppm sucralose, 4% cellobiose) focusing on the overall quality of sweetness.

expert tasters [4] = experiment: Expert taster comparison, model beverage: water, 7% sucrose, 2% cellobiose vs base
Procedure: (§3) Samples were evaluated by a panel of 6 expert tasters. Tasters were asked to compare the base (water with 7% of sucrose) with the model beverage (water, 7% of sucrose, and 2% cellobiose) focusing on the overall quality of sweetness, particularly on the enhancement of the upfront sweetness, overall sweetness intensity.

[5] = Sweetness and mouthfeel equivalence of sucrose + cellobiose solutions to sucrose solutions (general statement)
[6] = system: sweet sensitive panelists; experiment: Ranking of 5% sucrose+4% cellobiose against sucrose standards (6%, 7% and 8%) in water for overall sweetness intensity, r-index analysis; conditions: 4% cellobiose in combination with 5% sucrose
From the text: 20 sweet sensitive panelists rank ranked 5% sucrose+4% cellobiose and sucrose standards (6%, 7% and 8%) in water for overall sweetness intensity over 2 replications for a total of 40 observations. […] The expected sucrose equivalence (SE) of 4% cellobiose on top of 5% sucrose would be 6.25% (1.25%+5%) but the perceived SE was 7%, showing true sweetness enhancement.

expert tasters [7] = experiment: Expert taster comparison, carbonated lemon lime beverage (sodium benzoate, 90 ppm Sucralose, citric acid) with 4% cellobiose vs base; conditions: carbonated water, 2000 ppm sodium benzoate, 500 ppm citric acid, 850 ppm lemon lime flavor
Procedure: as §1, with “base (carbonated water,” for “base (water,”, “benzoate, 90” for “benzoate, 180”, “ppm Sucralose,” for “ppm Reb-A,”, “sodium benzoate, 90” for “sodium Benzoate, 180”

expert tasters [8] = experiment: Expert taster comparison, model beverage: water, 200 ppm sucralose, 2% cellobiose vs base
Procedure: as §3, with “7” for “6”, “(200 ppm” for “(water with 7%”, “sucralose)” for “sucrose)”, “200 ppm” for “7%”, “sucralose,” for “sucrose, and”

expert tasters [9] = experiment: Expert taster comparison, lemon lime beverage (water, sodium benzoate, 90 ppm sucralose, citric acid) with 4% cellobiose vs base; conditions: 2000 ppm sodium benzoate, 500 ppm citric acid, 850 ppm lemon lime flavor
Procedure: as §1, with “6” for “7”, “90” for “180”, “sucralose,” for “Reb-A,”, “benzoate, 90” for “Benzoate, 180”

expert tasters [10] = experiment: Expert taster comparison, model beverage: water, 5% sucrose, 2% cellobiose vs base
Procedure: as §3, with “13” for “6”, “5%” for “7%”

expert tasters [11] = experiment: Expert taster comparison, plain zero-fat yoghurt with 180 ppm RebA and 4% cellobiose vs base; conditions: 180 ppm RebA
Procedure: Yoghurt RebA 180 ppm+4% cellobiose
as §2, with “rebaudioside A (180” for “sucralose (90”, “yoghurt+180” for “yoghurt+90”, “RebA)” for “sucralose)”, “180” for “90”, “RebA” for “sucralose,”

trained panelists = experiment: Descriptor scoring (overall, upfront, delayed, lingering sweet; 100-point scale) of 80 ppm Reb-A in water with 4% cellobiose
Procedure: The test was carried out by a panel of 14 trained panelists. The panelists scored 4 descriptors (overall sweet, upfront sweet, delayed sweet and lingering sweet) on a 100-point scale over 4 replications for a total of […].

expert tasters [12] = experiment: Expert taster comparison, model beverage: water, 95 ppm sucralose, 2% cellobiose vs base
Procedure: as §3, with “8” for “6”, “(95 ppm” for “(water with 7%”, “sucralose)” for “sucrose)”, “95 ppm” for “7%”, “sucralose,” for “sucrose, and”

expert tasters [13] = experiment: Expert taster comparison, model beverage: water, 5% sucrose, 0.1% cellobiose vs base
Procedure: as §3, with “9” for “6”, “5%” for “7%”, “0.1%” for “2%”

expert tasters [14] = experiment: Expert taster comparison, lemon lime beverage (water, sodium benzoate, 180 ppm Reb-A, citric acid) with 4% cellobiose vs base, panel of 8 (Example 12); conditions: 2000 ppm sodium benzoate, 500 ppm citric acid, 850 ppm lemon lime flavor
Procedure: as §1, with “8” for “7”

[15] = 4% cellobiose added to 80 ppm Reb-A in water, vs unaltered 80 ppm Reb-A base

With OC[C@H]1O[C@@H](O[C@H]2[C@H](O)[C@@H](O)C(O)O[C@@H]2CO)[C@H](O)[C@@H](O)[C@@H]1O (mixture of isomers) [cellobiose] the “sweetness rated as sweet as sucrose” value ([1]; 4% cellobiose) was 1.25 % sucrose, the “inherent sweetness on its own” value ([1]; 4% cellobiose in water) was “not inherently sweet” and the “overall sweetness intensity relative to sucrose standards” value ([1]; 4% cellobiose in water, r-index analysis, 95% confidence level, p-value<0.05) was < 1.5 % sucrose and > 1.0 % sucrose. For the same molecule, the aroma profile (expert tasters [2]) was “rounded aroma profile”, the mouthfeel (expert tasters [2]) was “improved mouthfeel” and the sweetness enhancement (expert tasters [2]) was “significant sweetness enhancement”. For the same molecule, the upfront sweetness enhancement (expert tasters [2]) was “upfront sweetness enhancement”, the “balance and quality of sweetness” value (expert tasters [3]) was “significantly improved balance and quality of sweetness” and the sweetness (expert tasters [3]) was “much sweeter”. The profile (expert tasters [4]) was “rounded profile”, the sweetness enhancement (expert tasters [4]) was “significant sweetness enhancement” and the upfront sweetness enhancement (expert tasters [4]) was “upfront sweetness enhancement”. The “sucrose solution of similar sweetness and mouthfeel characteristics” value ([5]; solution of 2% sucrose and 4% cellobiose) was ~4 % sucrose, the “sucrose solution of very similar taste” value ([5]; solution of 5% sucrose+4% cellobiose) was ~7 % sucrose and the “sucrose solution of very similar taste” value ([5]; solution of 7% sucrose+4% cellobiose) was ~9 % sucrose. The sweetness enhancement [6] was “sweetness enhancement beyond an additive effect”, the aroma profile (expert tasters [7]) was “rounded aroma profile” and the mouthfeel (expert tasters [7]) was “improved mouthfeel”. For the same molecule, the sweetness enhancement (expert tasters [7]) was “significant sweetness enhancement”, the upfront sweetness enhancement (expert tasters [7]) was “upfront sweetness enhancement” and the mouthfeel (expert tasters [8]) was “better mouthfeel”. The offnotes (expert tasters [8]) was “decreased offnotes”, the profile (expert tasters [8]) was “rounded profile” and the sweetness enhancement (expert tasters [8]) was “significant sweetness enhancement”. For the same molecule, the upfront sweetness enhancement (expert tasters [8]) was “upfront sweetness enhancement”, the aroma profile (expert tasters [9]) was “rounded aroma profile” and the sweetness enhancement (expert tasters [9]) was “significant sweetness enhancement”. The upfront sweetness enhancement (expert tasters [9]) was “upfront sweetness enhancement”, the mouthfeel (expert tasters [10]) was “better mouthfeel” and the profile (expert tasters [10]) was “rounded profile”. The sweetness enhancement (expert tasters [10]) was “significant sweetness enhancement”, the upfront sweetness enhancement (expert tasters [10]) was “upfront sweetness enhancement” and the “overall balance and quality of sweetness” value (expert tasters [11]) was “significantly better overall balance and quality of sweetness”. For the same molecule, the sweetness (expert tasters [11]) was “much sweeter”, the delayed sweetness (trained panelists; [15]) was “significantly decreased” and the lingering sweetness (trained panelists; [15]) was “significantly decreased”. The overall sweetness (trained panelists; [15]) was “significantly increased”, the upfront sweetness (trained panelists; [15]) was “significantly increased” and the upfront sweetness (trained panelists; 80 ppm Reb-A and 4% cellobiose, vs isosweet 150 ppm Reb-A sample) was “significantly increased”. The “Reb-A aqueous solution of the same sweetness” value (trained panelists; aqueous solution of 80 ppm Reb-A and 4% cellobiose) was 150 ppm Reb-A, the mouthfeel (expert tasters [12]) was “better mouthfeel” and the offnotes (expert tasters [12]) was “decreased offnotes”. For the same molecule, the profile (expert tasters [12]) was “rounded profile”, the sweetness enhancement (expert tasters [12]) was “significant sweetness enhancement” and the upfront sweetness enhancement (expert tasters [12]) was “upfront sweetness enhancement”. For the same molecule, the profile (expert tasters [13]) was “rounded profile”, the sweetness enhancement (expert tasters [13]) was “significant sweetness enhancement” and the aroma profile (expert tasters [14]) was “rounded aroma profile”. For the same molecule, the mouthfeel (expert tasters [14]) was “improved mouthfeel”, the sweetness enhancement (expert tasters [14]) was “significant sweetness enhancement” and the upfront sweetness enhancement (expert tasters [14]) was “upfront sweetness enhancement”.

Reference: US11071317B2, “Sweetness enhancement” (Givaudan, S.A., priority 2015, dated 2021)
